Experiments:
Assay type in all cases: in vivo
[1] = test system: Manduca sexta (tobacco hornworm); assay: JA seed treatment, tomato plants challenged with Manduca sexta caterpillars; details: tomato cv. Carousel, seed treatment 1.5 mM JA, 4 days feeding
Protocol: (§1) Tomato, pepper, maize and wheat seeds were treated with 3 mM JA or 1.5 mM JA solutions or with 3 mM methyl jasmonate (MeJA) or with deionised water containing 42.8 mM ethanol (control) by full submersion of up to 40 seeds in a Petri dish of solution wrapped in foil for a period of 24 hours at 4° C. in a fridge. A temperature of 4° C. was used both to prevent degradation of the jasmonic acid solutions and to prevent germination of the seeds.
Tomato plants were then challenged with Tetranychus urticae (two-spotted spider mite) which were allowed to feed for 9 days, Manduca sexta (tobacco hornworm) caterpillars which were allowed to feed for 4 days or Myzus persicae (aphid), which were allowed to feed for 10 or 12 days. In each case these organisms were restricted to the plant on which they had originally been placed. Pepper plants were challenged with Myzus persicae (aphid), which were allowed to feed for 2 weeks. […]
(§2) The effect of Manduca sexta or Spodoptera exempta on plants was determined by measurement of the leaf area eaten, measured using a leaf area meter.
Seeds of a UK commercial F1 hybrid tomato variety (cv. Carousel) were treated with 1.5 mM jasmonic acid (JA), and plants grown in conditions appropriate to this crop (as described under Example 1). […] Caterpillars were allowed to feed on the plants for four days and the area of grazed leaves was then measured. […]

[2] = test system: Tetranychus urticae (two-spotted spider mite); assay: Spider mite challenge of untreated tomato plants grown adjacent to plants from JA-treated seeds; details: tomato cv Carousel; neighbours of 1.5 or 3.0 mM JA seed treatment
Protocol: The effect of Tetranychus urticae on plants was measured by means of counting the number of live and dead mites on each plant and the number of mite eggs present using a dissecting microscope. Seeds of a UK commercial F1 hybrid tomato variety (cv. Carousel) were treated with either 1.5 or 3.0 mM jasmonic acid (JA) and 42.8 mM ethanol in deionised H2O for a period of 24 hours at 4° C. in the dark. Those seeds were then removed from solution and washed in deionised H2O only to remove the JA coating the outside of the seed. Those seed were then germinated in a commercial manner using rockwool blocks and were grown on under glasshouse conditions appropriate to this crop. Plants were challenged with two-spotted spider mite (Tetranychus urticae) 7 weeks after treatment a common crop pest, acting here as a “model herbivore”. […] The effect was observed on comparing the controls located at least 10 meters away. (FIG. 6). The illustrated data are means of 10 replicates+/−standard error of the mean. […] The effect was again observed on comparing the controls located at least 10 meters away. (FIG. 7). The illustrated data are means of 10 replicates+/−standard error of the mean.

[3] = test system: Tetranychus urticae (two-spotted spider mite); assay: JA seed treatment, tomato plants challenged with two-spotted spider mite; details: tomato cv. Carousel
Protocol: as §1
The seeds were then removed from the treatment solution and washed in 1 liter of deionised water for 5 minutes to remove the JA or MeJA coating the outside of the seeds.
Tomato seeds were sown in rockwool blocks and grown on peat-based compost in glass houses at 12° C.-28° C. under artificial light on a 16 hour light and 8 hour dark cycle for 48, 56 or 70 days.
Tomato plants were then challenged with Tetranychus urticae (two-spotted spider mite) which were allowed to feed for 9 days, Manduca sexta (tobacco hornworm) caterpillars which were allowed to feed for 4 days or Myzus persicae (aphid), which were allowed to feed for 10 or 12 days. In each case these organisms were restricted to the plant on which they had originally been placed. Pepper plants were challenged with Myzus persicae (aphid), which were allowed to feed for 2 weeks. Maize and wheat plants were challenged with Spodoptera exempta caterpillars which were allowed to feed for 2 days (maize) or 3 days (wheat).
The effect of Tetranychus urticae on plants was measured by means of counting the number of live and dead mites on each plant and the number of mite eggs present using a dissecting microscope.
Seeds of a UK commercial F1 hybrid tomato variety (cv. Carousel) were treated with either 1.5 or 3.0 mM jasmonic acid (JA) and 42.8 mM ethanol in deionised H2O for a period of 24 hours at 4° C. in the dark. Those seeds were then removed from solution and washed in deionised H2O only to remove the JA coating the outside of the seed. Those seed were then germinated in a commercial manner using rockwool blocks and were grown on under glasshouse conditions appropriate to this crop. Plants were challenged with two-spotted spider mite (Tetranychus urticae) 7 weeks after treatment a common crop pest, acting here as a “model herbivore”.

[4] = test system: cucumber; assay: Long term growth and yield study after JA seed treatment, cucumber; details: seed treatment 1.5 or 3.0 mM JA, weekly harvests
From the text: Data are means of 8 replicate plants+/−standard error of the mean, and the line is a fitted growth response.

[5] = test system: Spodoptera exempta; assay: JA seed treatment, wheat plants challenged with Spodoptera exempta caterpillars; details: wheat cv. Einstein; seed treatment 1.5 mM JA; challenged 7 weeks after seed treatment; 3 days feeding; p<0.01
Protocol: as §1
(§3) Wheat and maize seeds were sown in peat-based compost and grown in unheated glass houses with supplementary lighting. (600 W SON-T lamps, for 16 hours per day) in the autumn.
(§4) Tomato plants were then challenged with Tetranychus urticae (two-spotted spider mite) which were allowed to feed for 9 days, Manduca sexta (tobacco hornworm) caterpillars which were allowed to feed for 4 days or Myzus persicae (aphid), which were allowed to feed for 10 or 12 days. […]
as §2
Seeds of the commercial wheat variety (cv. Einstein) were treated with 1.5 mM jasmonic acid (JA), and plants grown in the glasshouse (as described under Example 1). […] Caterpillars were allowed to feed on the plants for 3 days and the area of grazed leaves was then measured. […]

[6] = test system: Spodoptera exempta; assay: JA seed treatment, maize plants challenged with Spodoptera exempta caterpillars; details: maize cv. Earligold, seed treatment 1.5 mM JA, 2 days feeding
Protocol: as §1, §3, §4, §2
Seeds of maize cv. […] Caterpillars were allowed to feed on the plants for 2 days and the area of grazed leaves was then measured. […] When expressed as the area of leaf consumed per unit weight of caterpillars the reduction in plants grown from seed treated with JA was even more pronounced (40%, p<0.001, FIG. 9). […]

[7] = test system: tomato (Solanum lycopersicum cv "Carousel") seeds; assay: Effect of JA seed treatment on seed germination of tomato
From the text: The illustrated data are means of 10 replicate populations+/−standard error of the mean, and the line is a fitted dose response.

- Vegetative or reproductive growth, or commercial yield [4]: no significant effect
- JA concentration that significantly reduced the final percentage germination ([7]; JA between 0.001 and 50 mM tested, germination 7 days after sowing): > 10 mM
- Final percentage germination ([7]; seed treatment 1.5 or 3.0 mM JA): no significant effects
- Delay of seed germination ([7]; seed treatment 1.5 or 3.0 mM JA, 24 hours at 4 C in the dark): delayed by approximately one day
Structure (SMILES): CC/C=C\C[C@H]1C(=O)CC[C@@H]1CC(=O)O [JA, jasmonic acid]
- Caterpillar growth, less than those feeding on controls [1]: 20%
- Leaf area remaining after grazing, compared with controls ([1]; challenged 8 weeks after seed treatment): significantly higher
- Population of T. urticae on untreated plants grown adjacent to plants from JA-treated seeds, vs controls at least 10 meters away [2]: significant reduction
- Reproductive rate of the mite (egg production) on untreated plants grown adjacent to plants from JA-treated seeds, vs controls at least 10 meters away [2]: significant reduction
- Observed resistance induced against spider mite ([3]; 8 weeks after application of the JA to the seeds): significant
- Visual damage caused by red spider mite attack (pale stippling of the leaf surface) ([3]; seed treatment 3.0 mM JA vs control, challenged 7 weeks after treatment): substantially reduced
- Reproductive rate of the mite measured by egg production (eggs per adult female) compared with control plants ([3]; seed treatment 1.5 or 3.0 mM JA, 10 replicates): significant reduction
- Population of two-spotted spider mite on the leaves (number of live mites) compared with control plants ([3]; seed treatment 1.5 or 3.0 mM JA, mites fed 9 days, 10 replicates): significant reduction
- Leaf area consumed by caterpillars, lower than controls [5]: 60%
- Area of leaf consumed per unit weight of caterpillars, reduction vs controls ([6]; p<0.001): 40%
- Leaf area consumed by caterpillars, lower than controls ([6]; tassel stage approx. 10 weeks after seed treatment, p<0.05): 38%
